The text below walks through data of patent publication US20100173890A1, “Compounds, Process for their Preparation, Intermediates, Pharmaceutical Compositions and their use in the Treatment of 5-HT6 Mediated Disorders such as Alzheimer's Disease, Cognitive Disorders, Cognitive Impairment Associated with Schizophrenia, Obesity and Parkinson's Disease” (AstraZeneca AB, priority 2005, published 2010).

The target in this experiment is T1, Rat Striatal 5-HT6 Receptors (Rattus norvegicus, UniProt P31388).
T1 construct: Striatal tissue from adult rats (Sprague-Dawley, 320-370 g, B & K Sweden) were dissected out, weighed and homogenized; from tissue; host or cells: rat striatum (Sprague-Dawley) membranes
T1 sequence (P31388 whole entry): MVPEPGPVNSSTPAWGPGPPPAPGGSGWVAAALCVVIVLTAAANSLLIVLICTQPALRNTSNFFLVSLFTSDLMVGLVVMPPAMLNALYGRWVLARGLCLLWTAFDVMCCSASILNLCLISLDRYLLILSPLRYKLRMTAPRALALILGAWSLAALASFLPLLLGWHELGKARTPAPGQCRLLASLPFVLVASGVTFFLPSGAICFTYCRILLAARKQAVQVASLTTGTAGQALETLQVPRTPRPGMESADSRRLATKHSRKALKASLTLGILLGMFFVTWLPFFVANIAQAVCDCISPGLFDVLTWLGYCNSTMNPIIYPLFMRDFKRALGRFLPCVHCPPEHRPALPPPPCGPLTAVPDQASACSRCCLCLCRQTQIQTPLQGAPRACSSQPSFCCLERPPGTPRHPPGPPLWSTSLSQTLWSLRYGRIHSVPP
Kind of experiment: [125I]SB258585 binding to rat striatal 5-HT6 receptors. Particulars: competition with 0.5-1 nM [125I]SB258585, rat striatal membranes. On the procedure: Method for [125I]SB258585 Binding to Rat Striatal 5-HT6 Receptors
[^125I]SB258585 (1) with specific radioactivity 2000 Ci/mmol was purchased from Amersham Biosciences Europe GmbH, Freiburg, Germany. Other chemicals were is purchased from commercial sources and were of analytical grade.
Striatal tissue from adult rats (Sprague-Dawley, 320-370 g, B & K Sweden) were dissected out, weighed and homogenized in buffer containing 50 mM Tris-HCl, 4 mM MgCl2, 1 mM EDTA, 10 μM pargyline and protease inhibitor (Complete, Roche Diagnostics) pH 7.4 using an Ultra-Turrax T8 (IKA Labortechnik, Germany). The tissue homogenate was centrifuged at 48 000×g for 10 min and the pellet was resuspended and recentrifuged as above. […]
Saturation binding studies were carried out in duplicate with 1-3 mg w.w. per tube in 0.5 ml buffer (50 mM Tris, 4 mM MgCl2, 100 mM NaCl, 1 mM EDTA, 5 mM ascorbate and 10 μM pargyline at pH 7.4), 0.2 nM [^125I]SB258585 and unlabelled SB258585 to give a final concentration range of 0.23-20 nM (12 conc.). Non-specific binding was determined in the presence of 10 μM methiothepin. […] The radioactivity was determined in a Packard Tri-Carb 2900TR liquid scintillation counter: Data were analyzed by non-linear regression analyses using PRISM 4.00 (GraphPad Software Inc., San Diego, Calif.). […]

What is called Ki is a measure of affinity in units of concentration, obtained from inhibition or displacement. Lower therefore signals tighter binding. `O=S(=O)(Nc1cccc(Cl)c1)c1ccc2c(c1)CNCCO2` [Example 3, N-(3-Chlorophenyl)-2,3,4,5-tetrahydro-1,4-benzoxazepine-7-sulfonamide] had an inhibitory constant (Ki) of 82 ± 28 nM.
